Experiment: Biodegradability

Compound: Cl.NC(N)=O [urea hydrochloride, Urea Hydrochloride]
- Biodegradability: maintain the same biodegradability function

From patent US20170292066A1, “Synthetic Acid Compositions Alternatives to Conventional Acids in the Oil and Gas Industry” (Fluid Energy Group Ltd., priority 2014, published 2017)
